Measured values reported in patent publication US20120322699A1, “Method of Preventing Scale Formation During Enhanced Oil Recovery” (Chevron U.S.A. Inc., priority 2011, published 2012).

How the values were obtained:
[1] = Final bottle tests of formulations at lower agent concentrations with scale inhibitors; format: physicochemical
Protocol: Based on the above results, two commercial scale inhibitors were combined in synthetic brine with the metal complexing agents. The pH of the solutions was raised by addition of 1.0M NaOH to simulate the basic environment during an alkaline flood. The following procedure was used to prepare the aqueous solutions: • 1. Synthetic field brine was prepared by temporarily excluding the HCO3^−. • 2. Scale inhibitor was added and the solution was allowed to equilibrate after thorough mixing. • 3. Metal complexing agent was added to the brine above in concentrations near half of the stoichiometrically required amount and the solution was allowed to equilibrate after thorough mixing. • 4. NaHCO3 was added and the brine solutions were equilibrated. • 5.

[2] = Initial screening of complexing agents and scale inhibitors with synthetic brine; format: physicochemical; conditions: for Maximum pH: complexing agents, synthetic brine 1,000 ppm Ca2+/Mg2+, 450 ppm HCO3-
Protocol: Eight different metal complexing agents and five commercial scale inhibitors were tested according to known laboratory methods with a synthetic brine containing 1,000 ppm of divalent cation (Ca^2+/Mg^2+) and 450 ppm of HCO3^−. Among the complexing agents tested, six were organic ligands with carboxylate moieties and two were inorganic phosphates. The five scale inhibitors tested were commercial products supplied by Nalco Chemicals based on phosphonate, acrylate and sulfonate.

[3] = Bottle test of scale prevention capacity of metal complexing agents; format: physicochemical
Protocol: Scale prevention capacity of the metal complexing agents were then tested using the following bottle test procedure: • 1. Synthetic field brine was prepared with NaCl and NaHCO3 (constituents of the brine) but CaCl2 and MgCl2 content was temporarily withheld to avoid premature scaling. • 2. Metal complexing agent was added to the brine above in a stoichiometrically required amount and at higher concentrations and the solution was allowed to equilibrate after thorough mixing. • 3. CaCl2 and MgCl2 were added and the brine solutions were equilibrated. • 4. In a preliminary test, the impact of pH alone was evaluated. […] If no scale was observed, step 4 was repeated with addition of Na2CO3.

[4] = Initial bottle tests with BASF complexing agents without changing the pH; format: physicochemical; conditions: equimolar concentration (7,350 ppm) with the calcium ions, hard brine
From the text: The initial bottles tests were designed at the reported calcium binding capacity of the agents without changing the pH.

[5] = at 25° C.; cited from earlier work
[6] = agent 1.1 %, alkali Na2B2O4, pH 9.97
[7] = agent 1.1 %, alkali Na2B2O4, pH 10.10
[8] = agent 1.1 %, alkali Na2B2O4, pH 10.15
[9] = agent 1.1 %, alkali Na2CO3, pH 10.60
[10] = agent 1.1 %, alkali Na2CO3, pH 10.69
[11] = agent 1.1 %, alkali Na2CO3, pH 10.77
[12] = agent 0.8 %, alkali Na2B2O4, pH 10.10
[13] = agent 1.5 %, alkali Na2B2O4, pH 10.10
[14] = agent 1.5 %, alkali Na2CO3, pH 10.10
[15] = agent 1.5 %, alkali NaOH, pH 10.20
[16] = agent 1.5 %, alkali NaOH, pH 8.80

O=C(O)CN(CCN(CC(=O)O)CC(=O)O)CC(=O)O [EDTA, ethylenediaminetetraacetic acid]
complexing agent concentration when used with scale inhibitor ([1]; in combination with 200 ppm VX9400): 7,500 ppm

CC(=O)ON(CCN(OC(C)=O)OC(C)=O)OC(C)=O.[Na] [EDTA-Na4, sodium ethylenediamine tetraacetate]
pH value up to which effective ([2]; 11,000 ppm in hard field brine (equimolar Ca:EDTA)): ≤ 10.7
Maximum pH [2]: 10.7
Status (next day) [3, 6]: clear
Status (same day) [3, 6]: clear
Status (next day) [3, 7]: clear
Status (same day) [3, 7]: clear
Status (next day) [3, 8]: clear
Status (same day) [3, 8]: clear
Status (next day) [3, 9]: clear
Status (same day) [3, 9]: clear
Status (next day) [3, 10]: clear
Status (same day) [3, 10]: clear
Status (next day) [3, 11]: clear
Status (same day) [3, 11]: clear

CC(C(=O)O)N(CC(=O)O)CC(=O)O (stereo not shown) [MGDA, methylglycinediacetic acid]
pH value up to which scaling prevented [4]: ≤ 9.9
complexing agent concentration when used with scale inhibitor ([1]; in combination with 500 ppm VX9400): 5,500 ppm

O=C([O-])CN(CC(=O)[O-])CC(=O)[O-].[Na+].[Na+].[Na+] [NTA-Na3, sodium nitrilotriacetate]
Status (next day) ([3]; agent 0.8 %, no alkali added): scale
Status (same day) ([3]; agent 0.8 %, no alkali added): scale
Status (next day) ([3]; agent 1.1 %, no alkali added): scale
Status (same day) ([3]; agent 1.1 %, no alkali added): scale
Status (next day) ([3]; agent 1.5 %, no alkali added): scale
Status (same day) ([3]; agent 1.5 %, no alkali added): scale

O=C([O-])CC(O)(CC(=O)[O-])C(=O)[O-].[Na+].[Na+].[Na+] [Sodium citrate, sodium citrate]
overall assessment from bottle test results [3]: not a successful selection
Status (next day) [3, 12]: scale
Status (same day) [3, 12]: clear
Status (next day) [3, 13]: scale
Status (same day) [3, 13]: clear
Status (next day) [3, 14]: scale
Status (same day) [3, 14]: scale

O.O=C([O-])/C=C\C(=O)[O-].[Na+].[Na+] [Sodium maleate, sodium maleate monohydrate]
Maximum pH [2]: 10.2
overall assessment from bottle test results [3]: promising results
Status (next day) [3, 15]: clear
Status (same day) [3, 15]: clear

O=P(O)(O)OP(=O)(O)OP(=O)(O)O [Sodium tripolyphosphate]
Status (next day) ([3]; agent 1.15 %, no alkali added): scale
Status (same day) ([3]; agent 1.15 %, no alkali added): scale
Status (next day) ([3]; agent 1.5 %, no alkali added): scale
Status (same day) ([3]; agent 1.5 %, no alkali added): scale
Status (next day) ([3]; agent […], no alkali added): scale
Status (same day) ([3]; agent […], no alkali added): scale
water solubility [5]: 14.5 g/100 mL

O=P([O-])([O-])OP(=O)([O-])[O-].[K+].[K+].[K+].[K+] [Tetrapotassium pyrophosphate]
Status (next day) [3, 16]: scale
Status (same day) [3, 16]: scale
